Measured values published in patent EP1077981B1, “NOVEL CEPHALOSPORIN COMPOUNDS, PROCESSES FOR PREPARATION THEREOF AND ANTIMICROBIAL COMPOSITIONS CONTAINING THE SAME” (LG CHEMICAL LIMITED, priority 1998, dated 1999).
Converted amounts (≈) assume the structure as drawn. Like-named read-outs stand apart in the source and are kept apart here.

Columns and labels:
Enterobacter cloacae P99 = assay: MIC against standard strains (agar dilution); type: cell-based; conditions: Enterobacter cloacae P99; Mueller-Hinton agar, 20 hours at 37°C; read-out: MIC
Protocol: (§1) Test example 1: Measurement of Minimum Inhibitory Concentration (MIC)
(§2) Specifically, test compounds were diluted by 2-fold dilution method and dispersed in Mueller-Hinton agar medium and then, 2µℓ of test strains were inoculated at a concentration of 10^7 cfu(colony forming unit)/mℓ on the medium and incubated for 20 hours at 37°C.

[1] = tested on: Moraxella catarrhalis 25240; assay: MIC against standard strains (agar dilution); type: cell-based; conditions: Moraxella catarrhalis 25240; Mueller-Hinton agar, 20 hours at 37°C; read-out: MIC
Protocol: as §1, §2

[2] = tested on: Enterococcus faecalis 29212; assay: MIC against standard strains (agar dilution); type: cell-based; conditions: Enterococcus faecalis 29212; Mueller-Hinton agar, 20 hours at 37°C; read-out: MIC
Protocol: as §1, §2

[3] = tested on: Klebsiella aerogenes SHV-1 1976E; assay: MIC against standard strains (agar dilution); type: cell-based; conditions: Klebsiella aerogenes, 20 h
Protocol: as §1, §2

[4] = tested on: Moraxella catarrhalis C2431; assay: MIC against standard strains (agar dilution); type: cell-based; conditions: Moraxella catarrhalis C2431; Mueller-Hinton agar, 20 hours at 37°C; read-out: MIC
Protocol: as §1, §2

[5] = tested on: Klebsiella aerogenes K1+ 1082E; assay: MIC against standard strains (agar dilution); type: cell-based; conditions: Klebsiella aerogenes K1+ 1082E; Mueller-Hinton agar, 20 hours at 37°C; read-out: MIC
Protocol: as §1, §2

Staphylococcus aureus 77 = assay: MIC against standard strains (agar dilution); type: cell-based; conditions: Staphylococcus aureus 77; Mueller-Hinton agar, 20 hours at 37°C; read-out: MIC
Protocol: as §1, §2

[6] = tested on: Staphylococcus aureus giorgio; assay: MIC against standard strains (agar dilution); type: cell-based; conditions: Staphylococcus aureus giorgio; Mueller-Hinton agar, 20 hours at 37°C; read-out: MIC
Protocol: as §1, §2

Proteus vulgaris 6059 = assay: MIC against standard strains (agar dilution); type: cell-based; conditions: Proteus vulgaris 6059; Mueller-Hinton agar, 20 hours at 37°C; read-out: MIC
Protocol: as §1, §2

[7] = tested on: Salmonella typhimurium 14028; assay: MIC against standard strains (agar dilution); type: cell-based; conditions: Salmonella enterica; Salmonella typhimurium 14028; Mueller-Hinton agar, 20 hours at 37°C; read-out: MIC
Protocol: as §1, §2

[8] = tested on: Citrobacter freundii 8090; assay: MIC against standard strains (agar dilution); type: cell-based; conditions: Citrobacter freundii 8090; Mueller-Hinton agar, 20 hours at 37°C; read-out: MIC
Protocol: as §1, §2

Escherichia coli 3190Y = assay: MIC against standard strains (agar dilution); type: cell-based; conditions: Escherichia coli, 3190Y, 20 h
Protocol: as §1, §2

[9] = tested on: Citrobacter diversus 2046E; assay: MIC against standard strains (agar dilution); type: cell-based; conditions: Citrobacter koseri; Citrobacter diversus 2046E; Mueller-Hinton agar, 20 hours at 37°C; read-out: MIC
Protocol: as §1, §2

[10] = tested on: Escherichia coli TEM1 1193E; assay: MIC against standard strains (agar dilution); type: cell-based; conditions: TEM11193E, 20 h
Protocol: as §1, §2

[11] = tested on: Klebsiella pneumoniae 2011E; assay: MIC against standard strains (agar dilution); type: cell-based; conditions: Klebsiella pneumoniae 2011E; Mueller-Hinton agar, 20 hours at 37°C; read-out: MIC
Protocol: as §1, §2

[12] = tested on: Pseudomonas aeruginosa 1912E; assay: MIC against standard strains (agar dilution); type: cell-based; conditions: Pseudomonas aeruginosa 1912E; Mueller-Hinton agar, 20 hours at 37°C; read-out: MIC
Protocol: as §1, §2

Escherichia coli 851E = assay: MIC against standard strains (agar dilution); type: cell-based; conditions: Escherichia coli, 851E, 20 h
Protocol: as §1, §2

[13] = tested on: Escherichia coli TEM3 3455E; assay: MIC against standard strains (agar dilution); type: cell-based; conditions: TEM33455E, 20 h
Protocol: as §1, §2

[14] = Pharmacokinetic experiment (blood concentration by HPLC); type: in vivo, mice; conditions: male, mouse, blood, 20 mg/kg
Protocol: Test example 2: Pharmacokinetic experiment
Male mice, each of which has a body weight of […] were used in the present pharmacokinetic experiment. Test compounds were formulated into 1% of solution and then, the solution was administered by oral route and by injection with a dose of 20mg/kg, respectively. At the fixed interval of time after administration, blood was gathered from the mice. Concentrations of test compounds in blood were measured by HPLC quantitative analysis and based on the results, pharmacokinetic parameters were calculated.

[15] = intravenous, Injection, read-out: average conc.
[16] = intravenous, Injection, read-out: blood concentration, mouse-1
[17] = intravenous, Injection, read-out: blood concentration, mouse-2
[18] = other: injection, Injection, read-out: average conc.
[19] = other: injection, Injection, read-out: blood concentration, mouse-1
[20] = other: injection, Injection, read-out: blood concentration, mouse-2
[21] = po, Oral administration, read-out: average conc.
[22] = po, Oral administration, read-out: blood concentration, mouse-1
[23] = po, Oral administration, read-out: blood concentration, mouse-2
[24] = po, Oral administration, read-out: blood concentration, mouse-3

CO/N=C(\C(=O)NC1C(=O)N2C(C(=O)O)=C(Sc3cc(N)nc(N)n3)CSC12)c1csc(N)n1 (stereo not drawn) [Compound No. 25, 7-[(Z)-2-(2-amino-thiazol-4-yl)-2-methoxyimino-acetylamino]-3-(2,6-diamino-pyrimidin-4-ylsulfanyl)-8-oxo-5-thia-1-azabicyclo[4,2,0]oct-2-ene-2-carboxylic acid]
MIC (Enterobacter cloacae P99): > 64 µg/mL
MIC [1]: ≤ 0.008 µg/mL
MIC [2]: > 64 µg/mL
MIC [3]: 0.25 µg/mL (≈ 0.477 µM)
MIC [4]: ≤ 0.008 µg/mL
MIC [5]: > 64 µg/mL
MIC (Staphylococcus aureus 77): 4 µg/mL (≈ 7.64 µM)
MIC [6]: 0.5 µg/mL (≈ 0.955 µM)
MIC (Proteus vulgaris 6059): 0.016 µg/mL (≈ 0.0306 µM)
MIC [7]: 0.25 µg/mL (≈ 0.477 µM)
MIC [8]: 1 µg/mL (≈ 1.91 µM)
MIC (Escherichia coli 3190Y): 0.031 µg/mL (≈ 0.0592 µM)
MIC [9]: > 64 µg/mL
MIC [10]: 0.25 µg/mL (≈ 0.477 µM)
MIC [11]: 0.5 µg/mL (≈ 0.955 µM)
MIC [12]: 16 µg/mL (≈ 30.6 µM)
MIC (Escherichia coli 851E): 0.063 µg/mL (≈ 0.12 µM)
MIC [13]: 8 µg/mL (≈ 15.3 µM)
concentration at 1 min [14, 15]: 96400 ng/mL
concentration at 1 min [14, 16]: 120000 ng/mL
concentration at 1 min [14, 17]: 72800 ng/mL
concentration at 5 min [14, 15]: 41200 ng/mL
concentration at 5 min [14, 16]: 51700 ng/mL
concentration at 5 min [14, 17]: 30700 ng/mL
concentration at 10 min [14, 15]: 29100 ng/mL
concentration at 10 min [14, 16]: 37700 ng/mL
concentration at 10 min [14, 17]: 20400 ng/mL
concentration at 120 min [14, 15]: 1800 ng/mL
concentration at 120 min [14, 16]: 2200 ng/mL
concentration at 120 min [14, 17]: 1300 ng/mL
concentration at 180 min [14, 15]: 800 ng/mL
concentration at 180 min [14, 16]: 1100 ng/mL
concentration at 180 min [14, 17]: 600 ng/mL
concentration at 240 min [14, 15]: 400 ng/mL
concentration at 240 min [14, 16]: 500 ng/mL
concentration at 240 min [14, 17]: 300 ng/mL
concentration at 20 min [14, 18]: 17100 ng/mL
concentration at 20 min [14, 19]: 21600 ng/mL
concentration at 20 min [14, 20]: 12700 ng/mL
concentration at 40 min [14, 18]: 9800 ng/mL
concentration at 40 min [14, 19]: 12200 ng/mL
concentration at 40 min [14, 20]: 7300 ng/mL
concentration at 60 min [14, 18]: 6100 ng/mL
concentration at 60 min [14, 19]: 7600 ng/mL
concentration at 60 min [14, 20]: 4600 ng/mL
concentration at 90 min [14, 18]: 3300 ng/mL
concentration at 90 min [14, 19]: 4300 ng/mL
concentration at 90 min [14, 20]: 2400 ng/mL
concentration at 5 min [14, 21]: 90 ng/mL
concentration at 5 min [14, 22]: 70 ng/mL
concentration at 5 min [14, 23]: 130 ng/mL
concentration at 5 min [14, 24]: 60 ng/mL
concentration at 10 min [14, 21]: 200 ng/mL
concentration at 10 min [14, 22]: 160 ng/mL
concentration at 10 min [14, 23]: 270 ng/mL
concentration at 10 min [14, 24]: 140 ng/mL
concentration at 20 min [14, 21]: 490 ng/mL
concentration at 20 min [14, 22]: 280 ng/mL
concentration at 20 min [14, 23]: 720 ng/mL
concentration at 20 min [14, 24]: 270 ng/mL
concentration at 40 min [14, 21]: 470 ng/mL
concentration at 40 min [14, 22]: 270 ng/mL
concentration at 40 min [14, 23]: 590 ng/mL
concentration at 40 min [14, 24]: 350 ng/mL
concentration at 60 min [14, 21]: 440 ng/mL
concentration at 60 min [14, 22]: 160 ng/mL
concentration at 60 min [14, 23]: 610 ng/mL
concentration at 60 min [14, 24]: 260 ng/mL
concentration at 90 min [14, 21]: 570 ng/mL
concentration at 90 min [14, 22]: 70 ng/mL
concentration at 90 min [14, 23]: 840 ng/mL
concentration at 90 min [14, 24]: 290 ng/mL
concentration at 120 min [14, 21]: 360 ng/mL
concentration at 120 min [14, 22]: 60 ng/mL
concentration at 120 min [14, 23]: 480 ng/mL
concentration at 120 min [14, 24]: 240 ng/mL
concentration at 180 min [14, 21]: 410 ng/mL
concentration at 180 min [14, 22]: 60 ng/mL
concentration at 180 min [14, 23]: 590 ng/mL
concentration at 180 min [14, 24]: 240 ng/mL
concentration at 240 min [14, 21]: 230 ng/mL
concentration at 240 min [14, 22]: 60 ng/mL
concentration at 240 min [14, 23]: 220 ng/mL
concentration at 240 min [14, 24]: 230 ng/mL
